Experiments:
Cox-2 = test: Western blot of Cox-2 expression in LPS-activated RAW264.7 macrophages; type: cell-based, mouse; conditions: LPS 100 ng/mL; NDX1 0.1 and 1 mM, NDX2 and NAG 0.5 and 5 mM
Experimental: (§1) Mouse RAW264.7 macrophage cell line (ATCC; Manassas, VA, USA) was maintained in DMEM culture medium containing 10% FBS and 1% antibiotic mix. For cell treatment, the test drugs at different doses were added to the culture 0.5 h prior to addition of 100 ng/mL LPS (Sigma-Aldrich Co., St Louis, MO, USA) and then cells were co-treated with LPS for 24 hours.
(§2) The cellular proteins were prepared from cells growing on a 6-well plate (approximately 500,000/well) using a commercial cell lysis buffer (Thermo Scientific). Then the protein concentration was determined using the Bradford protein assay kit (Bio-Rad, Hercules, CA, USA). The samples containing 100 μg proteins were run on 10% SDS-polyacrylamide gels at a […] and electro-transferred to nitrocellulose membranes (Thermo Scientific) at a constant voltage of 10 V overnight. […] Using the magic wand tool from the tool palette, the area of each band was selected, and the mean histogram were recorded and then charted. […]

TNFa = test: Serum TNFa ELISA in LPS-induced systemic inflammation in mice; type: in vivo, mouse; conditions: LPS 10 mg/kg I.P., compound 300 mg/kg I.V.
Experimental: Male C57BL6/J mice (8 to 10-week-old, 20-25 g) purchased from Charles River were used in this study. Mice were kept in the animal facility of the School of Medicine, University of Virginia (UVa). All experimental procedures were approved by the Ethics Committee on Animal Research of Medical School, UVa and are in accordance with the Guidelines of the National Council for Animal Experimentation Control (CONCEA).
Moderate endotoxemia by LPS was induced with a single dose (10 mg/Kg, i.p.) of LPS (Escherichia coli 0111:B4, Sigma Chemical Co., St. Louis, MO, United States), 30 min after intravenous injection of NAG or NDX1 or NDX2 or the vehicle (saline). Two doses (200 mg/kg body weight and 300 mg/kg body weight) were tested for NAG, NDX1 and NDX2. Animals without any treatment were used to obtain the baseline data. Six hours after LPS treatment, inflammation assays were performed as described below. A total of 40 animals were randomly divided into 5 groups (8 mice/group): non-treatment (NT); 10 mg/Kg LPS plus saline (LPS); 10 mg/Kg LPS plus NAG (LPS+NAG); 10 mg/Kg LPS plus NDX1 (LPS+NDX1); and 10 mg/Kg LPS plus NDX2 (LPS+NDX2). The experiment was duplicated.
TNFa and IL-6 concentrations in the serum were determined using enzyme-linked immunosorbent assay (ELISA) according to the manufacturer's instructions. […] The resultant solutions were read at 450 nm on a microplate reader.

mouse iNOS = test: Western blot of iNOS expression in LPS-activated RAW264.7 macrophages; type: cell-based; conditions: LPS 100 ng/mL; NDX1 0.1 and 1 mM, NDX2 and NAG 0.5 and 5 mM
Experimental: as §1, §2

[1] = test system: primary mouse peritoneal macrophages; test: WST-1 assay in LPS-activated primary mouse peritoneal macrophages; type: cell-based; conditions: LPS 100 ng/mL, doses of up to 1 mM, 24 h, n=8
Experimental: • 1. Non treatment (NT) • 2. LPS 100 ng/mL • 3. LPS 100 ng/mL+NDX1 dose1* • 4. LPS 100 ng/mL+NDX1 dose2* • 5. LPS 100 ng/mL+NDX1 dose3* • 6. LPS 100 ng/mL+NDX2 dose1 • 7. LPS 100 ng/mL+NDX2 dose2 • 8. LPS 100 ng/mL+NDX2 dose3 • 9. LPS 100 ng/mL+NAG dose2 • 10. LPS 100 ng/mL+NAG dose3 (*dose 1, 2, 3 were selected as low, middle and high dose with no cytotoxicity from the cytotoxic assay) The peritoneal macrophages were isolated from peritoneal cavity, and cultured in Dulbecco's modified Eagle's medium (DMEM, Gibco BRL, Gaithersburg, MD) supplemented with 10% fetal bovine serum (FBS) (Hyclone Laboratories, Logan, VT) and 100 IU/mL penicillin G and 100 µg/mL streptomycin, in a humidified atmosphere of 5% carbon dioxide at 37° C. Cells will grow on a 96-well plate and co-treated with 100 ng/ml LPS (Sigma-Aldrich) 0.5 hours after addition of BNAGs and NAG. Twenty-four hours later, the cell number was counted by using the WST-1 kit (Fisher Scientific). After removal of the supernatant, […] new medium was added into each cell. Then 15 μl Cell Proliferation Reagent WST-1 was added and incubated with cells for 3 hours in dark with a humidified atmosphere of 5% carbon dioxide at 37° C. Each sample was determined at 450 nm on a microplate reader.

nitric oxide = test: Griess nitrite production assay in LPS-activated RAW264.7 macrophages; type: cell-based, mouse; conditions: LPS 100 ng/mL; NDX1 0.2, 1 and 5 mM, NDX2 0.5 and 5 mM, NAG 0.5-5 mM; n=6
Experimental: as §1
The Griess reagent system is based on the chemical reaction which uses sulfanilamide and N-1-napthylethylenediamine dihydrochloride (NED) under acidic (phosphoric acid) conditions. This system detects nitrite production. In the present experiments, nitric oxide detection was performed by a commercial kit (Promega Corporation, Madison, WI, USA), according to the manufacturer's manual. Briefly, all experimental samples and standards containing the dilution series for the nitrite standard reference curve were mixed with 50 μL of the sulfanilamide solution and incubated 10 mins at room temperature without light in a 96-well plate. Then 50 μL of the NED Solution was added to each well and incubated 10 mins at room temperature without light. The optical density (OD) was determined at 530 nm on a microplate reader within 30 mins. No LPS and the other drugs were added in the non-treatment group (NT). The experiment was duplicated. There were six repeats in each group (n=6). […].

## CC(=O)N[C@H]1C(O)O[C@H](CO)[C@@H](O)[C@@H]1O (some centres unmarked) [NAG, N-acetyl glucosamine]
Cox-2
  rank order for inhibition of Cox-2 expression (western blot): NAG>NDX2>NDX1
TNFa
  decrease of serum level of TNFa: significantly decrease serum levels
Mouse iNOS
  rank order for inhibition of iNOS expression (western blot): NDX1>NDX2>NAG
[1]
  effect on cell number (WST-1) compared with LPS alone: no significant effect on cell number
Nitric oxide
  inhibition of nitric oxide (nitrite) production: couldn't

From patent US20260191887A1, “METHODS OF TREATING INFLAMMATION” (THERAPEUTIKOS, INC., priority 2022, published 2026)
